Structures are written as SMILES.

For data set [1], the system named is Staphylococcus aureus. Kind of data set: Toxicity in methicillin-resistant Staphylococcus aureus assessed as growth inhibition at 20 ug/6mm disk after 68 hrs. In kind it is organism-based. The following applies: in vitro.
The subject of data set [2] is Staphylococcus aureus. Kind of data set: Inhibition of yellow pigment production in methicillin-resistant Staphylococcus aureus at 20 ug/6mm disk after 68 hrs by paper disk method. Format: functional.

Consider `COC(=O)[C@]1(O)C(c2ccc(O)cc2)=C(O)C(=O)[C@]1(OC)c1ccc(O)cc1`, for which the Activity result with Staphylococcus aureus [1] was “Non-toxic”. The “inhibition zone (IZ)” value in the data set with Staphylococcus aureus [2] was determined as 9 mm.

For the compound `COC(=O)[C@]1(O)C(c2ccc(O)cc2)=C(O)C(=O)[C@]1(O)c1ccc(O)cc1`, in the data set with Staphylococcus aureus [1], the Activity result is on record as “Non-toxic”. Further, the “inhibition zone (IZ)” value with Staphylococcus aureus [2] is listed as 7 mm.

In the case of `COC(=O)[C@@]1(O)C(c2ccc(O)cc2)=C(O)C(=O)[C@@]1(OC)c1ccc(O)cc1`, in the data set with Staphylococcus aureus [1], the Activity entry was “Non-toxic”. The “inhibition zone (IZ)” value with Staphylococcus aureus [2] is 8 mm.

On to `COC(=O)[C@@]1(O)C(c2ccc(O)cc2)=C(O)C(=O)[C@@]1(O)c1ccc(O)cc1`, for which the Activity entry with Staphylococcus aureus [1] is “Non-toxic”. In addition, the “inhibition zone (IZ)” value with Staphylococcus aureus [2] is given as 7 mm.
